In patent US20230102192A1, “THERAPIES FOR THE TREATMENT OF DISEASES AND DISORDERS ASSOCIATED WITH ABNORMAL EXPRESSION OF A NEURAL-ASSOCIATED GENE” (The Regents of the University of California, priority 2020, published 2023):

Tests used:
[1] = test system: MECP2-KO cortical organoids; test: Synapsin1+ puncta quantitation in cortical organoids; assay type: cell-based, human; conditions: 1 μM for one month, vs untreated
Protocol: Immunofluorescence of cells and cortical organoids. Immunofluorescence was performed as described in Chailangkam et al. Cells fixed in 4% PFA were PBS-washed and permeabilized/blocked (0.1% Triton X-100, 2% BSA). Cortical organoids fixed in 4% PFA were transferred to 30% sucrose, sunken, embedded in O.C.T. (Sakura, Tokyo, Japan), and cryostat-sectioned. Air-dried slides with organoid sections were permeabilized/blocked (0.1% Triton X-100, 3% FBS, PBS). […] Slides or coverslips were mounted with ProLong Gold anti-fade mountant (Life Technologies) and analyzed with a Z1 Axio Observer Apotome fluorescence microscope (Zeiss, Oberkochen, Germany).
Nefiracetam and PHA 543613 rescue network activity in MECP2-KO cortical organoids. The therapeutic efficacy of Nefiracetam and PHA 543613 was evaluated with cortical organoids, a complex, three-dimensional human neurodevelopmental model that closely recapitulates aspects of human fetal neurodevelopment. […]

[2] = target: GABAA receptor; conditions: read-out: affinity for the GABAA receptor (IC50); cited from earlier work

Cc1cccc(C)c1NC(=O)CN1CCCC1=O [Nefiracetam, nefiracetam]
synaptic puncta (Synapsin1+) [1]: increase | IC50 [2]: 8.5 nM
